# PubChem BioAssay (NCI)
#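 Where inhibition never reached the appropriate level, the endpoint shown equals the highest concentration tested. Otherwise, values were interpolated linearly from a five-concentration, 48-hour dose response in 96-well plates. Here, GI50 denotes the concentration required for 50% inhibition of growth. TGI: concentration producing complete growth inhibition.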
# How the values were obtained:
# Test in all cases: NCI anticancer screen, dose series, 48 h
# PC-3 prostate = tested on: PC-3 prostate
# T-47D breast = tested on: T-47D breast
# MALME-3M melanoma = tested on: MALME-3M melanoma
# SK-MEL-2 melanoma = tested on: SK-MEL-2 melanoma
# UACC-62 melanoma = tested on: UACC-62 melanoma
# LOX IMVI melanoma = tested on: LOX IMVI melanoma
# MCF7 breast = tested on: MCF7 breast
# UACC-257 melanoma = tested on: UACC-257 melanoma
# SW-620 colon = tested on: SW-620 colon
# HOP-92 NSCLC = tested on: HOP-92 NSCLC
# HL-60(TB) leukemia = tested on: HL-60(TB) leukemia
# SK-OV-3 ovarian = tested on: SK-OV-3 ovarian
# BT-549 breast = tested on: BT-549 breast
# SNB-19 CNS = tested on: SNB-19 CNS
# OVCAR-3 ovarian = tested on: OVCAR-3 ovarian
# HT29 colon = tested on: HT29 colon
# 786-0 renal = tested on: 786-0 renal
# OVCAR-8 ovarian = tested on: OVCAR-8 ovarian
# HCT-116 colon = tested on: HCT-116 colon
# TK-10 renal = tested on: TK-10 renal
# M14 melanoma = tested on: M14 melanoma
# SR leukemia = tested on: SR leukemia
# RXF 393 renal = tested on: RXF 393 renal
# CAKI-1 renal = tested on: CAKI-1 renal
# DU-145 prostate = tested on: DU-145 prostate
# SF-295 CNS = tested on: SF-295 CNS
# MDA-MB-435 = tested on: MDA-MB-435
# HCT-15 colon = tested on: HCT-15 colon
# OVCAR-5 ovarian = tested on: OVCAR-5 ovarian
# SK-MEL-5 melanoma = tested on: SK-MEL-5 melanoma
# KM12 colon = tested on: KM12 colon
# NCI-H522 lung = tested on: NCI-H522 lung
# IGROV1 ovarian = tested on: IGROV1 ovarian
# ACHN renal = tested on: ACHN renal
# NCI-H23 lung = tested on: NCI-H23 lung
# NCI-H226 lung = tested on: NCI-H226 lung
# COLO 205 colon = tested on: COLO 205 colon
# EKVX NSCLC = tested on: EKVX NSCLC
# K-562 leukemia = tested on: K-562 leukemia
# HS 578T breast = tested on: HS 578T breast
# MDA-MB-231 breast = tested on: MDA-MB-231 breast
# RPMI-8226 leukemia = tested on: RPMI-8226 leukemia
# OVCAR-4 ovarian = tested on: OVCAR-4 ovarian
# SNB-75 CNS = tested on: SNB-75 CNS
# MOLT-4 leukemia = tested on: MOLT-4 leukemia
# A549 NSCLC = tested on: A549 NSCLC
# NCI-H460 lung = tested on: NCI-H460 lung
# UO-31 renal = tested on: UO-31 renal
# NCI/ADR-RES ovarian = tested on: NCI/ADR-RES ovarian
# SF-268 CNS = tested on: SF-268 CNS
# A498 renal = tested on: A498 renal
# CCRF-CEM leukemia = tested on: CCRF-CEM leukemia
# SF-539 CNS = tested on: SF-539 CNS
# SK-MEL-28 melanoma = tested on: SK-MEL-28 melanoma
# HOP-62 NSCLC = tested on: HOP-62 NSCLC
# U251 CNS = tested on: U251 CNS
# HCC-2998 colon = tested on: HCC-2998 colon
structure (smiles),measurement,setting,value
FC1C2=C(SC1(F)F)C1CCC2C1 (centres undefined),TGI,PC-3 prostate,> 100 µM
same,TGI,T-47D breast,> 100 µM
same,TGI,MALME-3M melanoma,> 100 µM
same,TGI,SK-MEL-2 melanoma,> 100 µM
same,TGI,UACC-62 melanoma,> 100 µM
same,TGI,LOX IMVI melanoma,> 100 µM
same,TGI,MCF7 breast,> 100 µM
same,TGI,UACC-257 melanoma,> 100 µM
same,TGI,SW-620 colon,> 100 µM
same,TGI,HOP-92 NSCLC,> 100 µM
same,TGI,HL-60(TB) leukemia,> 100 µM
same,TGI,SK-OV-3 ovarian,> 100 µM
same,TGI,BT-549 breast,> 100 µM
same,TGI,SNB-19 CNS,> 100 µM
same,TGI,OVCAR-3 ovarian,> 100 µM
same,TGI,HT29 colon,> 100 µM
same,TGI,786-0 renal,> 100 µM
same,TGI,OVCAR-8 ovarian,> 100 µM
same,TGI,HCT-116 colon,> 100 µM
same,TGI,TK-10 renal,> 100 µM
same,TGI,M14 melanoma,> 100 µM
same,TGI,SR leukemia,> 100 µM
same,TGI,RXF 393 renal,> 100 µM
same,TGI,CAKI-1 renal,> 100 µM
same,TGI,DU-145 prostate,> 100 µM
same,TGI,SF-295 CNS,> 100 µM
same,TGI,MDA-MB-435,> 100 µM
same,TGI,HCT-15 colon,> 100 µM
same,TGI,OVCAR-5 ovarian,> 100 µM
same,TGI,SK-MEL-5 melanoma,> 100 µM
same,TGI,KM12 colon,> 100 µM
same,TGI,NCI-H522 lung,> 100 µM
same,TGI,IGROV1 ovarian,> 100 µM
same,TGI,ACHN renal,> 100 µM
same,TGI,NCI-H23 lung,> 100 µM
same,TGI,NCI-H226 lung,> 100 µM
same,TGI,COLO 205 colon,> 100 µM
same,TGI,EKVX NSCLC,> 100 µM
same,TGI,K-562 leukemia,> 100 µM
same,TGI,HS 578T breast,> 100 µM
same,TGI,MDA-MB-231 breast,> 100 µM
same,TGI,RPMI-8226 leukemia,> 100 µM
same,TGI,OVCAR-4 ovarian,> 100 µM
same,TGI,SNB-75 CNS,> 100 µM
same,TGI,MOLT-4 leukemia,> 100 µM
same,TGI,A549 NSCLC,> 100 µM
same,TGI,NCI-H460 lung,> 100 µM
same,TGI,UO-31 renal,> 100 µM
same,TGI,NCI/ADR-RES ovarian,> 100 µM
NC1=CN2c3ccccc3N(CC(=O)O)C2C=C1 (centres undefined),TGI,PC-3 prostate,> 100 µM
same,TGI,T-47D breast,> 100 µM
same,TGI,MALME-3M melanoma,> 100 µM
same,TGI,SK-MEL-2 melanoma,> 100 µM
same,TGI,UACC-62 melanoma,> 100 µM
same,TGI,LOX IMVI melanoma,> 100 µM
same,TGI,MCF7 breast,> 100 µM
same,TGI,UACC-257 melanoma,> 100 µM
same,TGI,SF-268 CNS,> 100 µM
same,TGI,SW-620 colon,> 100 µM
same,TGI,HOP-92 NSCLC,> 100 µM
same,TGI,HL-60(TB) leukemia,> 100 µM
same,TGI,SK-OV-3 ovarian,> 100 µM
same,TGI,BT-549 breast,> 100 µM
same,TGI,SNB-19 CNS,> 100 µM
same,TGI,OVCAR-3 ovarian,> 100 µM
same,TGI,HT29 colon,> 100 µM
same,TGI,786-0 renal,> 100 µM
same,TGI,A498 renal,> 100 µM
same,TGI,OVCAR-8 ovarian,> 100 µM
same,TGI,HCT-116 colon,> 100 µM
same,TGI,TK-10 renal,> 100 µM
same,TGI,M14 melanoma,> 100 µM
same,TGI,SR leukemia,> 100 µM
same,TGI,RXF 393 renal,> 100 µM
same,TGI,CAKI-1 renal,> 100 µM
same,TGI,DU-145 prostate,> 100 µM
same,TGI,SF-295 CNS,> 100 µM
same,TGI,MDA-MB-435,> 100 µM
same,TGI,HCT-15 colon,> 100 µM
same,TGI,OVCAR-5 ovarian,> 100 µM
same,TGI,SK-MEL-5 melanoma,> 100 µM
same,TGI,KM12 colon,> 100 µM
same,TGI,CCRF-CEM leukemia,> 100 µM
same,TGI,IGROV1 ovarian,> 100 µM
same,TGI,ACHN renal,> 100 µM
same,TGI,SF-539 CNS,> 100 µM
same,TGI,NCI-H23 lung,> 100 µM
same,TGI,NCI-H226 lung,> 100 µM
same,TGI,COLO 205 colon,> 100 µM
same,TGI,SK-MEL-28 melanoma,> 100 µM
same,TGI,HOP-62 NSCLC,> 100 µM
same,TGI,EKVX NSCLC,> 100 µM
same,TGI,K-562 leukemia,> 100 µM
same,TGI,U251 CNS,> 100 µM
same,TGI,HCC-2998 colon,> 100 µM
same,TGI,HS 578T breast,> 100 µM
same,TGI,MDA-MB-231 breast,> 100 µM
same,TGI,RPMI-8226 leukemia,> 100 µM
same,TGI,OVCAR-4 ovarian,> 100 µM
same,TGI,SNB-75 CNS,> 100 µM
same,TGI,MOLT-4 leukemia,> 100 µM
same,TGI,A549 NSCLC,> 100 µM
same,TGI,NCI-H460 lung,> 100 µM
same,TGI,UO-31 renal,> 100 µM
same,TGI,NCI/ADR-RES ovarian,> 100 µM
CCN(CC)CCCNC(=O)c1c2c(n3ccccc13)C(=O)c1ncccc1C2=O,GI50,PC-3 prostate,0.616 µM
same,TGI,PC-3 prostate,6.65 µM
same,GI50,T-47D breast,1.34 µM
same,TGI,T-47D breast,3.61 µM
same,GI50,MALME-3M melanoma,0.0823 µM
same,TGI,MALME-3M melanoma,0.425 µM
same,GI50,SK-MEL-2 melanoma,1.7 µM
same,TGI,SK-MEL-2 melanoma,3.89 µM
same,GI50,UACC-62 melanoma,0.472 µM
same,TGI,UACC-62 melanoma,2.21 µM
same,GI50,LOX IMVI melanoma,0.391 µM
same,TGI,LOX IMVI melanoma,1.8 µM
same,GI50,MCF7 breast,0.298 µM
same,TGI,MCF7 breast,1.76 µM
same,GI50,UACC-257 melanoma,0.491 µM
same,TGI,UACC-257 melanoma,1.71 µM
same,GI50,SF-268 CNS,1.11 µM
same,TGI,SF-268 CNS,7.09 µM
same,GI50,SW-620 colon,0.367 µM
same,TGI,SW-620 colon,1.67 µM
same,GI50,HOP-92 NSCLC,2.22 µM
same,TGI,HOP-92 NSCLC,4.87 µM
same,GI50,SK-OV-3 ovarian,1.59 µM
same,TGI,SK-OV-3 ovarian,5.65 µM
same,GI50,BT-549 breast,1.94 µM
same,TGI,BT-549 breast,4.06 µM
same,GI50,SNB-19 CNS,1.09 µM
same,TGI,SNB-19 CNS,2.67 µM
same,GI50,OVCAR-3 ovarian,0.134 µM
same,TGI,OVCAR-3 ovarian,0.938 µM
same,GI50,HT29 colon,0.248 µM
same,TGI,HT29 colon,1.54 µM
same,GI50,786-0 renal,0.904 µM
same,TGI,786-0 renal,7.9 µM
same,GI50,A498 renal,1.66 µM
same,TGI,A498 renal,3.27 µM
same,GI50,OVCAR-8 ovarian,0.486 µM
same,TGI,OVCAR-8 ovarian,2.07 µM
same,GI50,HCT-116 colon,0.25 µM
same,TGI,HCT-116 colon,1.09 µM
same,GI50,M14 melanoma,0.764 µM
same,TGI,M14 melanoma,2.25 µM
same,GI50,SR leukemia,0.485 µM
same,TGI,SR leukemia,> 100 µM
same,GI50,RXF 393 renal,1.16 µM
same,TGI,RXF 393 renal,3.13 µM
same,GI50,DU-145 prostate,1.23 µM
same,TGI,DU-145 prostate,2.56 µM
same,GI50,SF-295 CNS,1.07 µM
same,TGI,SF-295 CNS,6.29 µM
same,GI50,MDA-MB-435,0.224 µM
same,TGI,MDA-MB-435,0.506 µM
same,GI50,HCT-15 colon,0.935 µM
same,TGI,HCT-15 colon,2.54 µM
same,GI50,OVCAR-5 ovarian,1.18 µM
same,TGI,OVCAR-5 ovarian,4.9 µM
same,GI50,SK-MEL-5 melanoma,0.275 µM
same,TGI,SK-MEL-5 melanoma,1.24 µM
same,GI50,KM12 colon,0.44 µM
same,TGI,KM12 colon,6.33 µM
same,GI50,CCRF-CEM leukemia,2.21 µM
same,TGI,CCRF-CEM leukemia,> 100 µM
same,GI50,NCI-H522 lung,0.515 µM
same,TGI,NCI-H522 lung,2.32 µM
same,GI50,ACHN renal,0.395 µM
same,TGI,ACHN renal,3.16 µM
same,GI50,SF-539 CNS,1.07 µM
same,TGI,SF-539 CNS,2.45 µM
same,GI50,NCI-H23 lung,0.252 µM
same,TGI,NCI-H23 lung,1.99 µM
same,GI50,COLO 205 colon,0.123 µM
same,TGI,COLO 205 colon,0.399 µM
same,GI50,SK-MEL-28 melanoma,2.49 µM
same,TGI,SK-MEL-28 melanoma,8.64 µM
same,GI50,HOP-62 NSCLC,0.586 µM
same,TGI,HOP-62 NSCLC,2.78 µM
same,GI50,EKVX NSCLC,1.31 µM
same,TGI,EKVX NSCLC,3.11 µM
same,GI50,K-562 leukemia,0.916 µM
same,TGI,K-562 leukemia,> 100 µM
same,GI50,U251 CNS,1.37 µM
same,TGI,U251 CNS,2.89 µM
same,GI50,HCC-2998 colon,0.388 µM
same,TGI,HCC-2998 colon,1.65 µM
same,GI50,HS 578T breast,2.46 µM
same,TGI,HS 578T breast,7.3 µM
same,GI50,MDA-MB-231 breast,0.404 µM
same,TGI,MDA-MB-231 breast,9.73 µM
same,GI50,RPMI-8226 leukemia,3.21 µM
same,TGI,RPMI-8226 leukemia,> 100 µM
same,GI50,OVCAR-4 ovarian,0.164 µM
same,TGI,OVCAR-4 ovarian,0.903 µM
same,GI50,SNB-75 CNS,1.5 µM
same,TGI,SNB-75 CNS,2.93 µM
same,GI50,MOLT-4 leukemia,0.604 µM
same,TGI,MOLT-4 leukemia,> 100 µM
same,GI50,A549 NSCLC,1.17 µM
same,TGI,A549 NSCLC,2.84 µM
same,GI50,NCI-H460 lung,0.225 µM
same,TGI,NCI-H460 lung,1.75 µM
same,GI50,UO-31 renal,1.59 µM
same,TGI,UO-31 renal,5.07 µM
same,GI50,NCI/ADR-RES ovarian,3.02 µM
same,TGI,NCI/ADR-RES ovarian,23.4 µM
